One experiment deals with mortality induced by PAF. Briefly: Mortality induced by PAF in mice (p.o.). It counts as in vivo, Swiss mice. The settings on record: Mus musculus, oral administration 1 h before 100 mcg/kg PAF-C₁₈ + 1 mg/kg propanolol i.v., examined 2 h after PAF, dose inhibiting mortality in a 50%, read-out: ID₅₀. How it is done: Mortality induced by PAF in mice (p.o.).
This test was performed according to the procedure described by Young et al. (Prostaglandins, 1985, 30, 545-551). Groups of 10 Swiss mice weighing from 22 to 26 g were used. 100 mcg/kg of PAF-C₁₈ and 1 mg/kg of propanolol were administered through a lateral tail vein 1 h after the oral administration of the compounds to be tested (20 mL/kg). Animals were examined 2 h after the injection of PAF. The percentage of the inhibition of the mortality induced by PAF was determined for all the tested compounds in comparison with the control group. The results are expressed as ID₅₀ values, that is to say, the amount of compound by weight of animal (dose) needed to inhibit the mortality induced by PAF in a 50%.

For experiment [1], the system named is platelet aggregation induced by PAF. Briefly: Inhibition of platelet aggregation induced by PAF (platelet rich plasma, Born nephelometric technique). In kind it is cell-based, New Zealand albino rabbits. The settings on record: rabbit platelet rich plasma, PAF C₁₈ 16 nM final, concentration needed to inhibit platelet aggregation in a 50%, read-out: IC₅₀. As to the method:
Inhibition of platelet aggregation induced by PAF.
The blood is obtained by cardiac puncture of male New Zealand albino rabbits (between 2 and 2.5 Kg of weight) and coagulation is prevented by adding 1 part of 3.16% sodium citrate dihydrate in 9 parts of blood. The platelet rich plasma (PRP) is prepared by blood centrifugation at 250xg for 10 min. at 4°C and it is diluted with platelet poor plasma (PPP) obtained by additional centrifugation at 3000xg for 10 min. The amount of platelets is adjusted to […]. The platelet aggregation induced by PAF (C₁₈, prepared in our laboratory) (16 nM, final) is determined by the Born nephelometric technique (J. Physiol., 1962, 162, 67) using an aggregometer Chrono-log 500. The activities of the inhibitors are expressed as IC₅₀ values, that is to say the concentration of the drug needed to inhibit the platelet aggregation in a 50%.

The subject of experiment [2] is hypotension induced by PAF. Briefly: Inhibition of the hypotensive effect induced by PAF in normotense rats. It counts as in vivo, Sprage Dawley rats. The settings on record: for ED50: Rattus norvegicus, iv, read-out: ID₅₀. How it is done:
Inhibition of the hypotensive effect induced by PAF in normotense rats.
Male Sprage Dawley rats, of 180-220 g of weight, anesthetized with sodium pentobarbital (50 mg/Kg, i.p. 1 mL/100 g) have been used. In order to measure the average arterial pressure, a polyethylene catheter is introduced into the carotid artery. The arterial pressure is recorded with the help of a transducer connected with a R611 Beckman polygraph. The tested compounds are administered through the femoral vein 3 min. before the injection of PAF (0.5 mcg/Kg, i.v.) . The inhibition of the hypotension induced by PAF of the different compounds is expressed as ID₅₀, that is to say, the amount of compound by weight of animal (dose) needed to inhibit the hypotension induced by PAF in a 50%.

The mark [3] stands for this setting: anesthetized male rats, compound via femoral vein 3 min before PAF (0.5 mcg/Kg, i.v.), dose inhibiting PAF hypotension in a 50%.

Read-outs that look alike come from different tables or passages of the source.

As to `Cc1ncccc1C(C#N)N1CCN(C(=O)CCNC(c2ccccc2)c2ccccc2)CC1` (stereo not drawn) [Compound 34, 1-[3-(N-(Diphenylmethyl)amino)propionyl]-4-[(2-methyl-3-pyridyl)cyanomethyl]piperazine], the ED50 with mortality induced by PAF is 0.62 mg/kg; in experiment [2] (setting [3]) it was 0.044 mg/kg. Besides, the IC50 in experiment [1] (Oryctolagus cuniculus) was 0.11 µM.

Regarding `Cc1ncccc1C(C#N)N1CCN(C(=O)CNC(c2ccccc2)c2ccccc2)CC1` (stereo not drawn) [Compound 22, 1-[N-(Diphenylmethyl)aminoacetyl]-4-[(2-methyl-3-pyridyl)cyanomethyl]piperazine], the ED50 in the experiment with mortality induced by PAF came out at 0.3 mg/kg; in experiment [2] (setting [3]), 0.021 mg/kg. In addition, in experiment [1] (Oryctolagus cuniculus), the IC50 was determined as 0.085 µM.

For the molecule `Cc1ncccc1C(C#N)N1CCN(C(=O)[C@H](C)NC(c2ccccc2)c2ccccc2)CC1` (stereo partly drawn) [Compound 28, 1-[(S)-2-(N-(Diphenylmethyl)amino)propionyl]-4-[(2-methyl-3-pyridyl)cyanomethyl]piperazine], the ED50 was 1.6 mg/kg in the experiment on mortality induced by PAF and 0.025 mg/kg in experiment [2] (setting [3]). In addition, the IC50 in experiment [1] (Oryctolagus cuniculus) was 0.013 µM.

As to `Cc1ncccc1C(C#N)N1CCN(C(=O)CC(O)(c2ccccc2)c2ccccc2)CC1` (stereo not drawn) [Compound 4, 1-(3,3-Diphenyl-3-hydroxypropionyl)-4-[(2-methyl-3-pyridyl)cyanomethyl]piperazine], the values for the ED50 (in the experiment on mortality induced by PAF; in experiment [2] (setting [3])) were 0.69 mg/kg and 0.039 mg/kg, respectively. Further, the IC50 in experiment [1] (Oryctolagus cuniculus) was found to be 0.017 µM.

As to `Cc1ncccc1C(C#N)N1CCN(C(=O)COC(c2ccccc2)c2ccccc2)CC1` (stereo not drawn) [Compound 36, 1-[(Diphenylmethoxy)acetyl]-4-[(2-methyl-3-pyridyl)cyanomethyl]piperazine], the IC50 in experiment [1] (Oryctolagus cuniculus) turned out to be 0.042 µM. Moreover, in experiment [2] (setting [3]), the ED50 was 0.048 mg/kg.

As to `Cc1ncccc1C(C#N)N1CCN(C(=O)C=C(c2ccccc2)c2ccccc2)CC1` (stereo not drawn) [Compound 5, 1-(3,3-Diphenylpropenoyl)-4-[(2-methyl-3-pyridyl)cyanomethyl]piperazine], the IC50 in experiment [1] (Oryctolagus cuniculus) was determined as 0.026 µM. Moreover, in experiment [2] (setting [3]), the ED50 was found to be 0.038 mg/kg.

In the case of `COC(=O)NC(CC(=O)N1CCN(C(C#N)c2cccnc2C)CC1)c1ccccc1` (stereo not drawn) [Compound 41, 1-[3-(N-(Methoxycarbonyl)amino)-3-phenylpropionyl]-4-[(2-methyl-3-pyridyl)cyanomethyl]piperazine], the figures for the ED50 (in the experiment with mortality induced by PAF; in experiment [2] (setting [3])) were 0.044 mg/kg and 0.015 mg/kg, respectively. Also, the IC50 in experiment [1] (Oryctolagus cuniculus) is 0.041 µM.

On to `Cc1ncccc1C(C#N)N1CCN(C(=O)CC(NC(=O)N(C)O)c2ccccc2)CC1` (stereo not drawn) [Compound 78, 1-[3-(N-(N'-hydroxy-N'-methylcarbamoyl)amino)-3-phenylpropionyl]-4-[(2-methyl-3-pyridyl)cyanomethyl]piperazine], for which the IC50 in experiment [1] stood at 0.082 µM. In addition, in experiment [2] (setting [3]), the ID₅₀ was determined as 0.055 mg/Kg i.v.

For the molecule `Cc1ncccc1C(C#N)N1CCN(C(=O)CC(c2ccccc2)c2ccccc2)CC1.Cl.Cl` (stereo not drawn) [Compound 1, 1-(3,3-Diphenylpropionyl)-4-[(2-methyl-3-pyridyl)cyanomethyl]piperazine, dihydrochloride], the IC50 in experiment [1] (Oryctolagus cuniculus) was 0.018 µM. Moreover, in experiment [2] (setting [3]), the ED50 worked out at 0.015 mg/kg.

In the case of `Cc1ncccc1C(C#N)N1CCN(C(=O)CC(NC(=O)c2ccccc2)c2ccccc2)CC1` (stereo not drawn) [Compound 16, 1-[3-(N-Benzoylamino)-3-phenylpropionyl]-4-[(2-methyl-3-pyridyl)cyanomethyl]piperazine], in experiment [1] (Oryctolagus cuniculus), the IC50 is 0.0091 µM. Moreover, the ED50 in experiment [2] (setting [3]) was determined as 0.056 mg/kg.

Turning to `CNC(=O)N(O)C(CC(=O)N1CCN(C(C#N)c2cccnc2C)CC1)c1ccccc1` (stereo not drawn) [Compound 77, 1-[3-(N-methylcarbamoyl-N-hydroxyamino)-3-phenylpropionyl]-4-[(2-methyl-3-pyridyl)cyanomethyl]piperazine], the IC50 in experiment [1] (Oryctolagus cuniculus) turned out to be 3 µM. Also, the ED50 in experiment [2] (setting [3]) turned out to be 0.045 mg/kg.

For `Cc1ncccc1C(C#N)N1CCN(C(=O)CCC(c2ccccc2)c2ccccc2)CC1` (stereo not drawn) [Compound 18, 1-(4,4-Diphenylbutanoyl)-4-[(2-methyl-3-pyridyl)cyanomethyl]piperazine], in experiment [1] (Oryctolagus cuniculus), the IC50 was determined as 0.08 µM. In experiment [2] (setting [3]), the ED50 was found to be 0.028 mg/kg.

As for `CC(=O)NC(CC(=O)N1CCN(C(C#N)c2cccnc2C)CC1)c1ccccc1` (stereo not drawn) [Compound 17, 1-[3-(N-acetylamino)-3-phenylpropionyl]-4-[(2-methyl-3-pyridyl)cyanomethyl]piperazine], the ED50 was determined as 0.09 mg/kg in the experiment with mortality induced by PAF and 0.035 mg/kg in experiment [2] (setting [3]). For the same molecule, the IC50 in experiment [1] (Oryctolagus cuniculus) came out at 0.038 µM.

In the case of `Cc1ncccc1C(C#N)N1CCN(C(=O)CC(O)(c2ccccc2)C(F)(F)F)CC1` (stereo not drawn) [Compound 11, 1-(3-Phenyl-3-hydroxy-3-(trifluoromethyl)propionyl)-4-[(2-methyl-3-pyridyl)cyanomethyl]piperazine], the ED50 amounted to 0.44 mg/kg in the experiment with mortality induced by PAF and 0.013 mg/kg in experiment [2] (setting [3]). Moreover, in experiment [1] (Oryctolagus cuniculus), the IC50 turned out to be 0.014 µM.

On to `CC(=O)N(O)C(CC(=O)N1CCN(C(C#N)c2cccnc2C)CC1)c1ccccc1` (stereo not drawn) [Compound 75, 1-[3-(N-acetyl-N-hydroxyamino)-3-phenylpropionyl]-4-[(2-methyl-3-pyridyl)cyanomethyl]piperazine], for which the ED50 in the experiment with mortality induced by PAF was 0.061 mg/kg; in experiment [2] (setting [3]), 0.027 mg/kg. In addition, the IC50 in experiment [1] (Oryctolagus cuniculus) worked out at 0.062 µM.

`Cc1ncccc1C(C#N)N1CCN(C(=O)CC(c2ccccc2)N2CCOC2=O)CC1` (stereo not drawn) [Compound 68, 1-[3-(2-oxo-3-oxazolidinyl)-3-phenylpropionyl]-4-[(2-methyl-3-pyridyl)cyanomethyl]piperazine]: the ED50 is 0.3 to 1 mg/kg in the experiment on mortality induced by PAF and 0.029 mg/kg in experiment [2] (setting [3]). The IC50 in experiment [1] (Oryctolagus cuniculus) is 0.063 µM.

Take `Cc1ncccc1C(C#N)N1CCN(C(=O)CC(C)(O)c2ccccc2)CC1` (stereo not drawn) [Compound 9, 1-(3-Phenyl-3-hydroxybutanoyl)-4-[(2-methyl-3-pyridyl)cyanomethyl]piperazine]: in experiment [1] (Oryctolagus cuniculus), the IC50 was determined as 0.036 µM.

As to `Cc1ncccc1C(C#N)N1CCN(C(=O)CC(NCc2ccccc2)c2ccccc2)CC1` (stereo not drawn) [Compound 15, 1-[3-(N-Benzylamino)-3-phenylpropionyl]-4-[(2-methyl-3-pyridyl)cyanomethyl]piperazine], the ED50 was determined as 1.2 mg/kg in the experiment with mortality induced by PAF and 0.035 mg/kg in experiment [2] (setting [3]). For the same molecule, in experiment [1] (Oryctolagus cuniculus), the IC50 is 0.0091 µM.

Regarding `Cc1ncccc1C(C#N)N1CCN(C(=O)CC(NC(=O)c2cccnc2)c2ccccc2)CC1` (stereo not drawn) [Compound 60, 1-[3-(N-(3-pyridylcarbonyl)amino)-3-phenylpropionyl]-4-[(2-methyl-3-pyridyl)cyanomethyl]piperazine], the ED50 in the experiment with mortality induced by PAF stood at 0.41 mg/kg; in experiment [2] (setting [3]) it was 0.029 mg/kg. The IC50 in experiment [1] (Oryctolagus cuniculus) amounted to 0.0089 µM.

As to `Cc1ncccc1C(C#N)N1CCN(C(=O)CC(c2ccccc2)N(O)C(N)=O)CC1` (stereo not drawn) [Compound 76, 1-[3-(N-carbamoyl-N-hydroxyamino)-3-phenylpropionyl]-4-[(2-methyl-3-pyridyl)cyanomethyl]piperazine], the IC50 in experiment [1] (Oryctolagus cuniculus) is 0.069 µM.

As to `Cc1ncccc1C(C#N)N1CCN(C(=O)CC(Nc2ccccc2)c2ccccc2)CC1` (stereo not drawn) [Compound 74, 1-[3-(N-phenylamino)-3-phenylpropionyl]-4-[(2-methyl-3-pyridyl)cyanomethyl]piperazine], the ED50 is 0.27 mg/kg in the experiment with mortality induced by PAF and 0.042 mg/kg in experiment [2] (setting [3]). Moreover, the IC50 in experiment [1] (Oryctolagus cuniculus) came to 0.028 µM.

Take `Cc1ncccc1C(C#N)N1CCN(C(=O)CC(c2ccccc2)N2CCCC2=O)CC1` (stereo not drawn) [Compound 66, 1-[3-(2-oxo-1-pyrrolidinyl)-3-phenylpropionyl]-4-[(2-methyl-3-pyridyl)cyanomethyl]piperazine]: the ED50 amounted to 0.13 mg/kg with mortality induced by PAF and 0.026 mg/kg in experiment [2] (setting [3]). For the same molecule, the IC50 in experiment [1] (Oryctolagus cuniculus) came out at 0.029 µM.

Turning to `Cc1ncccc1C(C#N)N1CCN(C(=O)CC(NC(=O)Oc2ccccc2)c2ccccc2)CC1` (stereo not drawn) [Compound 44, 1-[3-(N-(Phenoxycarbonyl)amino)-3-phenylpropionyl]-4-[(2-methyl-3-pyridyl)cyanomethyl]piperazine], in experiment [1] (Oryctolagus cuniculus), the IC50 was found to be 0.016 µM. The ED50 in experiment [2] is 0.036 mg/kg.

For `CCOC(=O)NC(CC(=O)N1CCN(C(C#N)c2cccnc2C)CC1)c1ccccc1` (stereo not drawn) [Compound 42, 1-[3-(N-(Ethoxycarbonyl)amino)-3-phenylpropionyl]-4-[(2-methyl-3-pyridyl)cyanomethyl]piperazine], the ED50 in the experiment on mortality induced by PAF came to 0.23 mg/kg; in experiment [2] (setting [3]), 0.025 mg/kg. Besides, in experiment [1] (Oryctolagus cuniculus), the IC50 was determined as 0.014 µM.
